What is called GI50 is the concentration that inhibits growth by half. A low value points to more potent growth inhibition.

The structures appear in SMILES notation. Calls of active or inactive are those of the source. No cut-off for these calls is given here.

In ChEMBL document CHEMBL4411299, “A class of novel tubulin polymerization inhibitors exert effective anti-tumor activity via mitotic catastrophe” (Eur J Med Chem, 2019) one finds GI50 and Activity data, which are given here for 27 compounds.

For experiment [1], the system named is HT-29. The experiment is described as follows: Antiproliferative activity against human HT-29 cells after 48 hrs by MTT assay. Particulars: HT-29, 48 h. The class given is functional. (Tetrazolium assays rely on reduction of a dye to a coloured formazan, in cell work by metabolically active cells.)
Experiment [2] concerns A549. Put plainly: Antiproliferative activity against human A549 cells after 48 hrs by MTT assay. Format: functional. Particulars: A549, 48 h.
The subject of experiment [3] is MDA-MB-231. Put plainly: Antiproliferative activity against human MDA-MB-231 cells after 48 hrs by MTT assay. As to conditions: MDA-MB-231, 48 h. Format: functional.
The test system of experiment [4] is HepG2. The experiment is described as follows: Antiproliferative activity against human HepG2 cells after 48 hrs by MTT assay. Format: functional. As to conditions: HepG2, 48 h.
Experiment [5] has as its system HeLa. Put plainly: Antiproliferative activity against human HeLa cells after 48 hrs by MTT assay. The class given is functional.
Experiment [6] relates to A2780. Put plainly: Antiproliferative activity against human A2780 cells after 48 hrs by MTT assay. Particulars: A2780, 48 h. The class given is functional.
In experiment [7] the target is T1, Tubulin (Homo sapiens) (UniProt P68371+Q9H4B7+P0DPH7+P68366+Q13509+Q71U36+P04350+Q3ZCM7+P07437+P68363+Q9BQE3+Q6PEY2+Q13885+Q9BVA1+Q9BUF5). The experiment is described as follows: Induction of tubulin polymerization in human HeLa cells assessed as increase in density of microtubule polymerization at 0.05 after 12 hrs by DAPI staining-based confocal fluorescence microscopic analysis. The class given is cell-based.

The target in experiment [8] is T1, Tubulin (Homo sapiens). The experiment is described as follows: Induction of tubulin polymerization in human HeLa cells assessed as induction of long thick microtubule bundles at 0.05 after 12 hrs by DAPI staining-based confocal fluorescence microscopic analysis. The class given is cell-based.

With `CCCOC(=O)N1N=C(c2ccccc2)CC1c1cc(OC)c(OC)c(OC)c1` (stereo not drawn), the concentration for 50% growth inhibition (GI50) in experiment [1] was more than 10 µM; in experiment [2], more than 10 µM; in experiment [3] it was 14.4 µM; in experiment [4] it was more than 10 µM; in experiment [5], more than 10 µM; in experiment [6], 10.8 µM.

Take `COC(=O)N1N=C(c2cccc(OC)c2)CC1c1cc(OC)c(OC)c(OC)c1` (stereo not drawn): the GI50 in experiment [1] stood at 1.3 µM; in experiment [2], 2.59 µM; in experiment [3], 0.35 µM; in experiment [4], 1.87 µM; in experiment [5], 1.53 µM; in experiment [6] it was 2.78 µM.

`CCCOC(=O)N1N=C(c2cccc(O)c2)CC1c1cc(OC)c(OC)c(OC)c1` (stereo not drawn): the GI50 is 15.2 µM in experiment [1]; more than 10 µM in experiment [2]; 10 µM in experiment [3]; more than 10 µM in experiment [4]; more than 10 µM in experiment [5]; 11.1 µM in experiment [6].

In the case of `COc1cc(C2CC(c3ccccc3)=NN2C(=O)OCc2ccccc2)cc(OC)c1OC` (stereo not drawn), the concentration for 50% growth inhibition (GI50) in experiment [1], in experiment [2], in experiment [3], in experiment [4], in experiment [5] and in experiment [6] was more than 10 µM throughout.

For the compound `COC(=O)N1N=C(c2ccccc2)CC1c1cc(OC)c(OC)c(OC)c1` (stereo not drawn), the GI50 in experiment [1] was found to be 6.26 µM; in experiment [2], 2.88 µM; in experiment [3], 1.08 µM; in experiment [4], 3.95 µM; in experiment [5], 2.18 µM; in experiment [6], 2.77 µM.

Regarding `COc1ccc(C2=NN(C(=O)OCc3ccccc3)C(c3cc(OC)c(OC)c(OC)c3)C2)cc1` (stereo not drawn), the GI50 in experiment [1], in experiment [2], in experiment [3], in experiment [4], in experiment [5] and in experiment [6] was more than 10 µM in each case.

As for `CCOC(=O)N1N=C(c2cccc(OC)c2)CC1c1cc(OC)c(OC)c(OC)c1` (stereo not drawn), the GI50 in experiment [1] was determined as 7.86 µM; in experiment [2], 5.92 µM; in experiment [3], 9.1 µM; in experiment [4], 5.82 µM; in experiment [5], 4.11 µM; in experiment [6], 7.3 µM.

For the compound `COC(=O)N1N=C(c2cc(OC)c(OC)c(OC)c2)CC1c1cc(OC)c(OC)c(OC)c1` (stereo not drawn), the GI50 is 7.85 µM in experiment [1]; 12.6 µM in experiment [2]; 11.1 µM in experiment [3]; 9.72 µM in experiment [4]; 5.68 µM in experiment [5]; 14 µM in experiment [6].

For `COC(=O)N1N=C(c2ccccc2)CC1c1cc(OC)c(OC)cc1OC` (stereo not drawn), the 50% growth inhibitory concentration (GI50) in experiment [1] was 14.9 µM; in experiment [2], 5.32 µM; in experiment [3], more than 10 µM; in experiment [4], 6.53 µM; in experiment [5], 2.47 µM; in experiment [6], more than 10 µM.

Take `CCOC(=O)N1N=C(c2ccc(OC)cc2)CC1c1cc(OC)c(OC)c(OC)c1` (stereo not drawn): the GI50 in experiment [1] worked out at 6.73 µM; in experiment [2] it was 4.69 µM; in experiment [3], 2.66 µM; in experiment [4], 9.4 µM; in experiment [5], 8.71 µM; in experiment [6], 9.27 µM.

As to `COc1cc(C2CC(c3cccc(O)c3)=NN2C(=O)OCc2ccccc2)cc(OC)c1OC` (stereo not drawn), the GI50 in experiment [1], in experiment [2], in experiment [3], in experiment [4], in experiment [5] and in experiment [6] was more than 10 µM in each case.

With `COC(=O)N1N=C(c2ccccc2)CC1c1ccc(OC)c(OC)c1` (stereo not drawn), the GI50 worked out at 10.7 µM in experiment [1]; 7.32 µM in experiment [2]; 8.94 µM in experiment [3]; 9.15 µM in experiment [4]; 5.48 µM in experiment [5]; 29.9 µM in experiment [6].

As to `COC(=O)N1N=C(c2ccc(O)cc2)CC1c1cc(OC)c(OC)c(OC)c1` (stereo not drawn), the GI50 was 6.77 µM in experiment [1]; 8.57 µM in experiment [2]; 7.15 µM in experiment [3]; 7.82 µM in experiment [4]; 1.14 µM in experiment [5]; 2.52 µM in experiment [6].

Regarding `CCOc1cccc(C2=NN(C(=O)OC)C(c3cc(OC)c(OC)c(OC)c3)C2)c1` (stereo not drawn), the GI50 was 4.45 µM in experiment [1]; 5.29 µM in experiment [2]; 0.19 µM in experiment [3]; 8.36 µM in experiment [4]; 4.97 µM in experiment [5]; 0.76 µM in experiment [6].

Turning to `CCOC(=O)N1N=C(c2cccc(O)c2)CC1c1cc(OC)c(OC)c(OC)c1` (stereo not drawn), the GI50 is 11.6 µM in experiment [1]; 5.12 µM in experiment [2]; 4.71 µM in experiment [3]; 1.79 µM in experiment [4]; 3.28 µM in experiment [5]; 9.75 µM in experiment [6].

As to `CCOC(=O)N1N=C(c2ccccc2)CC1c1cc(OC)c(OC)c(OC)c1` (stereo not drawn), the 50% growth inhibitory concentration (GI50) in experiment [1] came to 8.92 µM; in experiment [2], 6.68 µM; in experiment [3] it was 5.61 µM; in experiment [4] it was 5.95 µM; in experiment [5], 8.23 µM; in experiment [6], 6.72 µM.

Take `COC(=O)N1N=C(c2ccccc2)CC1c1c(OC)cc(OC)cc1OC` (stereo not drawn): the GI50 in experiment [1] was more than 10 µM; in experiment [2], 5.88 µM; in experiment [3], 10.6 µM; in experiment [4] it was 7.49 µM; in experiment [5], 3.49 µM; in experiment [6], more than 10 µM.

As for `COC(=O)N1N=C(c2ccc(OC)cc2)CC1c1cc(OC)c(OC)c(OC)c1` (stereo not drawn), the GI50 in experiment [1] worked out at 2.55 µM; in experiment [2], 3.4 µM; in experiment [3], 1.99 µM; in experiment [4], 1.71 µM; in experiment [5], 2.59 µM; in experiment [6] it was 5 µM.

In the case of `COC(=O)N1N=C(c2ccccc2)CC1c1ccccc1` (stereo not drawn), the GI50 in experiment [1], in experiment [2], in experiment [3], in experiment [4], in experiment [5] and in experiment [6] was more than 10 µM each time.

Consider `CC(=O)O[C@H]1C(=O)[C@@]2(C)[C@H]([C@H](OC(=O)c3ccccc3)[C@]3(O)C[C@H](OC(=O)[C@H](O)[C@@H](NC(=O)c4ccccc4)c4ccccc4)C(C)=C1C3(C)C)[C@]1(OC(C)=O)CO[C@@H]1C[C@@H]2O`, for which the result in experiment [7] and in experiment [8] was Active.

As for `CCCOC(=O)N1N=C(c2ccc(OC)cc2)CC1c1cc(OC)c(OC)c(OC)c1` (stereo not drawn), the concentration for 50% growth inhibition (GI50) is 12.7 µM in experiment [1]; more than 10 µM in experiment [2]; 20.4 µM in experiment [3]; more than 10 µM in experiment [4]; more than 10 µM in experiment [5]; 11.7 µM in experiment [6].

On to `COC(=O)N1N=C(c2cccc(O)c2)CC1c1cc(OC)c(OC)c(OC)c1` (stereo not drawn), for which the GI50 came to 1.35 µM in experiment [1]; 3.17 µM in experiment [2]; 0.74 µM in experiment [3]; 0.65 µM in experiment [4]; 1.97 µM in experiment [5]; 0.81 µM in experiment [6].

In the case of `COC(=O)N1N=C(c2ccccc2)CC1c1ccc(OC)cc1` (stereo not drawn), the GI50 in experiment [1] was more than 10 µM; in experiment [2] it was 15.3 µM; in experiment [3] it was more than 10 µM; in experiment [4], 12 µM; in experiment [5], 12.7 µM; in experiment [6] it was more than 10 µM.

Consider `COC(=O)N1N=C(c2ccc(OC)c(OC)c2)CC1c1cc(OC)c(OC)c(OC)c1` (stereo not drawn), for which the GI50 stood at 9.2 µM in experiment [1]; 3.93 µM in experiment [2]; 9.9 µM in experiment [3]; 4.21 µM in experiment [4]; 3.39 µM in experiment [5]; 11.4 µM in experiment [6].

Consider `COC(=O)N1N=C(c2ccccc2)CC1c1ccc(OC)c(O)c1` (stereo not drawn), for which the GI50 in experiment [1] came out at 3.5 µM; in experiment [2], 8.93 µM; in experiment [3] it was 14.5 µM; in experiment [4] it was 9.81 µM; in experiment [5], 7.52 µM; in experiment [6], 4.96 µM.

As to `COc1cccc(C2=NN(C(=O)OCc3ccccc3)C(c3cc(OC)c(OC)c(OC)c3)C2)c1` (stereo not drawn), the GI50 in experiment [1], in experiment [2], in experiment [3], in experiment [4], in experiment [5] and in experiment [6] was more than 10 µM throughout.

In the case of `CCCOC(=O)N1N=C(c2cccc(OC)c2)CC1c1cc(OC)c(OC)c(OC)c1` (stereo not drawn), the GI50 in experiment [1] was more than 10 µM; in experiment [2] it was more than 10 µM; in experiment [3], 12.5 µM; in experiment [4], more than 10 µM; in experiment [5], more than 10 µM; in experiment [6], more than 10 µM.
